Experimental findings from patent US20150352108A1, “AMINO-PYRIMIDINE COMPOUNDS AS INHIBITORS OF TBK1 AND/OR IKK EPSILON” (Alzheimer's Institute of America, priority 2009, published 2015) are described below.

One test deals with T1, IKKε (Homo sapiens, UniProt Q14164).
T1 construct: His-tag; made in house; host or cells: Sf9 insect cells
T1 sequence (Q14164 1-716): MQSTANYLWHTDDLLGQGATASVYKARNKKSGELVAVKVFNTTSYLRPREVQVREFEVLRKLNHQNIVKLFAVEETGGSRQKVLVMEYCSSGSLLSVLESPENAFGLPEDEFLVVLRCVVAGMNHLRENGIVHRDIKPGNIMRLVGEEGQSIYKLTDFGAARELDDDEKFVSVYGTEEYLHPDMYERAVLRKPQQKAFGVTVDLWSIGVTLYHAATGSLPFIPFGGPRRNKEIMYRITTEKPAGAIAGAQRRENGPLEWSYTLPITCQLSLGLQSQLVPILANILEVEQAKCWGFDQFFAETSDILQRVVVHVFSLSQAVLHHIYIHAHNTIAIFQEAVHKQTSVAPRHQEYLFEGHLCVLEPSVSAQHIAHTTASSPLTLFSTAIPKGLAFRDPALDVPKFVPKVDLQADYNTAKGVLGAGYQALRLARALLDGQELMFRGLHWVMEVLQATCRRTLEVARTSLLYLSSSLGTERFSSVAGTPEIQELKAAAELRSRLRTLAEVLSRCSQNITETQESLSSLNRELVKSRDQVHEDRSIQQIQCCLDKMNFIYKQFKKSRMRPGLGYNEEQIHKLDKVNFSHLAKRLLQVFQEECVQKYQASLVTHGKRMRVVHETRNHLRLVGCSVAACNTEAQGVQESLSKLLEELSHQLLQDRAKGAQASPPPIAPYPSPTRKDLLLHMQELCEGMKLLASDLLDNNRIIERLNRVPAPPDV
The test is described as follows: In-vitro IKKε kinase assay ([γ33]ATP filter-plate). It is filed as biochemical. Particulars: text bins; read-out: IC50 for inhibition of the kinase activity of IKKε. The procedure, abridged:
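His-tagged Sf9-expressed kinases at 0.1 or 0.02 μg/ml (TBK1) and 0.1 or 0.015 μg/ml (IKKε) for normal and sensitized formats, with myelin basic protein or casein substrate. ATP was at 2×Km (60 μM TBK1, 32 μM IKKε) plus 0.3 μCi [γ33]ATP. Reactions ran 30-45 min, were captured on P-81 filters, and counts were normalized to DMSO.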

Another test has as its target T2, TBK1 (Homo sapiens, UniProt Q9UHD2).
T2 construct: His-tag; made in house; host or cells: Sf9 insect cells
T2 sequence (Q9UHD2 1-729): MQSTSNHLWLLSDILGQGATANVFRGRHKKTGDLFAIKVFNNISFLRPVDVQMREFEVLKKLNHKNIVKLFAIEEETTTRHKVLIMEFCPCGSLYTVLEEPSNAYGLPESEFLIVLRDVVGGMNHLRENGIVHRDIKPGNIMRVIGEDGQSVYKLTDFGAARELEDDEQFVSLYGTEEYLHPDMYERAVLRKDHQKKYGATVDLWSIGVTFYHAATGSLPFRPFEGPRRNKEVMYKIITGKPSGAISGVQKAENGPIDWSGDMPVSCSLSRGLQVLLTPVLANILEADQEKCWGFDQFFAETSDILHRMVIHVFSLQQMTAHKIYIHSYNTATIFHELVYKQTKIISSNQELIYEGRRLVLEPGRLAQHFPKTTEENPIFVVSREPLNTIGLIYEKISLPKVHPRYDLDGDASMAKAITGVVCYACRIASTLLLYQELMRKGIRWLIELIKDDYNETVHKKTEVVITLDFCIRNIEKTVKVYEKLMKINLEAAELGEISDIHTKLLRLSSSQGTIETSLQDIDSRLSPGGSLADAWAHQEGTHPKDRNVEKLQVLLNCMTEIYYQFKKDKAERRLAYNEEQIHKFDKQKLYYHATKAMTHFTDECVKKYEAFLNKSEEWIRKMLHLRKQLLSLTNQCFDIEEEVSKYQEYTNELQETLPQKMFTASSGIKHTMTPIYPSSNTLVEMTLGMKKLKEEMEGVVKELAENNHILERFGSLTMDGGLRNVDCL
The test is described as follows: In-vitro TBK1 kinase assay ([γ33]ATP filter-plate). The conditions noted are these: text bins; read-out: IC50 for inhibition of the kinase activity of TBK1. In kind it is biochemical. The method, then:
IKKε enzyme was produced as a His-tag fusion in Sf9 cells and used at a final concentration of […]. TBK1 enzyme was produced as a His-tag fusion in Sf9 cells and used at a final concentration of 0.1 μg/ml. Kinase reactions were carried out in reaction buffer using myelin basic protein (Millipore, Ballerica, Mass.) or casein (Sigma, St. Louis, Mo.) as substrate at an ATP concentration equal to twice the Km,ATP value for each enzyme, corresponding to 32 μM ATP for IKKε and 60 μM ATP for TBK1, in the presence of 0.3 μCi [γ^33]ATP (PerkinElmer, Waltham, Mass.). Final enzyme concentrations were 0.1 or 0.015 μg/ml (IKKε) and 0.1 or 0.02 μg/ml (TBK1), representing “normal” and “sensitized” assay conditions respectively. Test compounds (or DMSO solvent as a control) were added prior to initiation of the reactions. Reactions were terminated after 30-45 minutes by adding 3% phosphoric acid. Terminated reactions were transferred to P-81 cellulose phosphate filterplates (Whatman, Inc., Piscataway, N.J.) and washed with 1% phosphoric acid on a vacuum apparatus. After air drying, scintillant (PerkinElmer, Waltham, Mass.) was added and the plates were read on a PerkinElmer TopCount NXT instrument. Counts were normalized to DMSO controls after background subtraction.

Broadly, the IC50 is the midpoint of a concentration-inhibition curve. On to `CC(C)NC(=O)Nc1ccc(-c2ccnc(Nc3ccc(N4CCOCC4)cc3)n2)cc1C#N` [Example 60, 1-[2-cyano-4-(2-{[4-(morpholin-4-yl)phenyl]amino}pyrimidin-4-yl)phenyl]-3-propan-2-ylurea], for which the IC50 at IKKε fell in the range of 5 to 50 nM; on TBK1, 10 to 100 nM.

For the molecule `Cc1ccc(Nc2nccc(-c3ccc(NC(=O)C(C)C)c(C#N)c3)n2)cc1OCCCN1CCOCC1` [compound 410], the figures for the IC50 on IKKε and at TBK1 were 5 to 50 nM and 10 to 100 nM, respectively.

Take `CN(C)c1ccc(Nc2nccc(-c3cccc(C#N)c3)n2)cc1` [Example 286, 3-(2-{[4-(Dimethylamino)phenyl]amino}pyrimidin-4-yl)benzonitrile]: the IC50 at IKKε is 50 to 500 nM; on TBK1 it was 100 to 500 nM.

For `N#Cc1cc(-c2ccnc(Nc3ccc(S(=O)(=O)N4CCOCC4)cc3)n2)ccc1OC1CCOCC1` [compound 363, 5-(2-{[4-(morpholin-4-ylsulfonyl)phenyl]amino}pyrimidin-4-yl)-2-(tetrahydro-2H-pyran-4-yloxy)benzonitrile], the half-maximal inhibitory concentration (IC50) on IKKε is 5 to 50 nM; on TBK1 it was under 10 nM.

Regarding `COC(=O)C(C)Oc1ccc(-c2ccnc(Nc3ccc(N4CCOCC4)cc3)n2)cc1C#N` (stereo not shown) [Example 63, Methyl 2-[2-cyano-4-(2-{[4-(morpholin-4-yl)phenyl]amino}pyrimidin-4-yl)phenoxy] propanoate], the concentration for half-maximal inhibition (IC50) at IKKε lay in the range of 5 to 50 nM; on TBK1, 10 to 100 nM.

With `COc1cc(NC(=O)N2CC[C@H](O)C2)cc(Nc2nccc(-c3ccc(OC)c(C#N)c3)n2)c1` [compound 294, (3S)-N-(3-{[4-(3-Cyano-4-methoxyphenyl)pyrimidin-2-yl]amino}-5-methoxyphenyl)-3-hydroxypyrrolidine-1-carboxamide], the IC50 lay within 5 to 50 nM on IKKε and 10 to 100 nM on TBK1.

Take `CC(C)C(=O)Nc1ccc(-c2ccnc(Nc3ccc(CN4CCOCC4)cc3)n2)cc1C#N` [compound 428, N-[2-cyano-4-(2-{[4-(morpholin-4-ylmethyl)phenyl]amino}pyrimidin-4-yl)phenyl]-2-methylpropanamide]: the IC50 was in the range of 5 to 50 nM at IKKε and 10 to 100 nM on TBK1.

`N#Cc1cc(-c2ccnc(Nc3ccc(N4CCOCC4)c(Cl)c3)n2)ccc1OC1CCOCC1` [compound 374, 5-(2-{[3-chloro-4-(morpholin-4-yl)phenyl]amino}pyrimidin-4-yl)-2-(tetrahydro-2H-pyran-4-yloxy)benzonitrile]: the IC50 at IKKε was under 5 nM; at TBK1, under 10 nM.

`COc1ccc(-c2ccnc(Nc3ccc(OC)c(OC)c3)n2)cc1C#N` [Example 48, 5-{2-[(3,4-Dimethoxyphenyl)amino]pyrimidin-4-yl}-2-methoxybenzonitrile]: the concentration for half-maximal inhibition (IC50) at IKKε fell in the range of 5 to 50 nM; at TBK1, 10 to 100 nM.

Take `CCN(CC)CCN(CC)S(=O)(=O)Cc1ccc(Nc2nccc(-c3ccc(OC4CCOCC4)c(C#N)c3)n2)cc1` [compound 412, 1-[4-({4-[3-Cyano-4-(tetrahydro-2H-pyran-4-yloxy)phenyl]pyrimidin-2-yl}amino)phenyl]-N-[2-(diethylamino)ethyl]-N-ethylmethane-sulfonamide]: the results for the IC50 at IKKε and on TBK1 were 5 to 50 nM and 10 to 100 nM, respectively.

With `COc1ccc(-c2ccnc(Nc3ccc(N4CCNC(=O)C4)c(OC)c3)n2)cc1C#N` [compound 370, 2-Methoxy-5-(2-{[3-methoxy-4-(3-oxopiperazin-1-yl)phenyl]amino}pyrimidin-4-yl)benzonitrile], the IC50 at IKKε was under 5 nM; on TBK1, under 10 nM.

As to `COc1ccc(-c2ccnc(Nc3ccc(N4CCS(=O)(=O)CC4)cc3)n2)cc1C#N` [compound 313], the results for the IC50 at IKKε and at TBK1 were 5 to 50 nM and 10 to 100 nM, respectively.

With `N#Cc1cc(-c2ccnc(Nc3ccc(CS(=O)(=O)NCCO)cc3)n2)ccc1OCC1CC1` [compound 637, 1-[4-({4-[3-Cyano-4-(cyclopropylmethoxy)phenyl]pyrimidin-2-yl}amino)phenyl]-N-(2-hydroxyethyl) methanesulfonamide], the IC50 is under 5 nM at IKKε and under 10 nM on TBK1.

As for `COc1cc(Nc2nccc(-c3ccc(OC4CCOCC4)c(C#N)c3)n2)ccc1OCCOCCNS(=O)(=O)N1CCOCC1` [Example 29, N-(2-{2-[4-({4-[3-cyano-4-(tetrahydro-2H-pyran-4-yloxy)phenyl]pyrimidin-2-yl}amino)-2-methoxyphenoxy]ethoxy}ethyl) morpholine-4-sulfonamide], the half-inhibitory concentration (IC50) at IKKε is under 5 nM; at TBK1 it was under 10 nM.

Consider `COc1cc(Nc2nccc(-c3ccc(OC4CCOCC4)c(C#N)c3)n2)ccc1C(N)=O` [compound 311, 4-({4-[3-cyano-4-(tetrahydro-2H-pyran-4-yloxy)phenyl]pyrimidin-2-yl}amino)-2-methoxybenzamide], for which the IC50 was under 5 nM at IKKε and under 10 nM on TBK1.

As for `N#Cc1cc(-c2ccnc(Nc3ccc(N4CCOCC4)cc3)n2)ccc1NC(=O)C1CC1` [Example 91, N-[2-cyano-4-(2-{[4-(morpholin-4-yl)phenyl]amino}pyrimidin-4-yl)phenyl] cyclopropane-carboxamide], the IC50 at IKKε was under 5 nM; on TBK1 it was under 10 nM.

In the case of `CS(=O)(=O)N1CCN(c2ccc(Nc3nccc(-c4ccc(OC5CCOCC5)c(C#N)c4)n3)cc2)CC1` [Example 100, 5-[2-({4-[4-(methylsulfonyl)piperazin-1-yl]phenyl}amino)pyrimidin-4-yl]-2-(tetrahydro-2H-pyran-4-yloxy)benzonitrile], the IC50 on IKKε was under 5 nM; at TBK1 it was under 10 nM.

For `COc1cc(Nc2nccc(-c3ccc(OC4CCOCC4)c(C#N)c3)n2)ccc1OCCCS(=O)(=O)N1CCOCC1` [Example 28, 5-[2-({3-methoxy-4-[3-(morpholin-4-ylsulfonyl)propoxy]phenyl}amino)pyrimidin-4-yl]-2-(tetrahydro-2H-pyran-4-yloxy)benzonitrile], the values for the IC50 at IKKε and at TBK1 were under 5 nM and under 10 nM, respectively.

On to `N#Cc1cc(-c2ccnc(Nc3ccc(N4CCOCC4)cc3)n2)ccc1OCc1cccnc1` [Example 168, 5-(2-{[4-(Morpholin-4-yl)phenyl]amino}pyrimidin-4-yl)-2-(pyridin-3-ylmethoxy) benzonitrile], for which the IC50 was 5 to 50 nM at IKKε and under 10 nM at TBK1.

Turning to `N#Cc1cc(-c2ccnc(Nc3ccc(N4CCOCC4)cc3)n2)ccc1OC1CCNCC1` [Example 194, 5-(2-{[4-(Morpholin-4-yl)phenyl]amino}pyrimidin-4-yl)-2-(piperidin-4-yloxy)benzonitrile], the IC50 at IKKε was 5 to 50 nM; at TBK1, under 10 nM.
